Experimental data as given in patent publication US7348427B2, “Antipathogenic benzamide compounds” (Genesoft Pharmaceuticals, Inc., priority 2001, dated 2008).

Tests used:
S. pneumoniae ATCC 49619 = experiment: MIC, NCCLS broth microdilution assay; type: cell-based, Streptococcus pneumoniae; conditions: H = S. pneumoniae ATCC 49619
How it was run: (§1)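 MICs were determined by NCCLS broth microdilution following documents M7-A4 and M11-A4 (1997).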

[1] = system: Bacillus cereus (ATCC 11778); experiment: MIC, NCCLS broth microdilution assay; type: cell-based; conditions: A = B. cereus ATCC 11778
How it was run: (§2)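 The antifungal assay used the Manual of Clinical Microbiology (1995) procedure. […] minimal inhibitory concentrations came from NCCLS broth microdilution per M7-A4, M11-A4 and M27-T.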

[2] = system: Staphylococcus aureus (ATCC 27660, a methicillin resistant strain (MRSA)); experiment: MIC, NCCLS broth microdilution assay; type: cell-based; conditions: F = S. aureus ATCC 27660
How it was run: as §2

[3] = system: Staphylococcus aureus (ATCC 13709, a methicillin sensitive strain (MSSA)); experiment: MIC, NCCLS broth microdilution assay; type: cell-based; conditions: E = S. aureus ATCC 13709
How it was run: as §2

E. faecalis ATCC 29212 = experiment: MIC, NCCLS broth microdilution assay; type: cell-based, Enterococcus faecalis; conditions: C = E. faecalis ATCC 29212
How it was run: as §1

[4] = system: Candida albicans (ATCC 38247); experiment: Antifungal MIC assay; type: cell-based; conditions: B = C. albicans ATCC 38247
How it was run: as §2

## Cn1cc(NC(=O)c2cc(NC(=O)c3cc(NC(=O)c4ccc(Cl)cc4F)cn3C)c[nH]2)cc1C(=O)NCCN1CCOCC1 [Compound C-10]
S. pneumoniae ATCC 49619
  Minimum Inhibitory Concentration (MIC): +++ (+++ = MIC ≦ 4)
[1]
  Minimum Inhibitory Concentration (MIC): +++ (+++ = MIC ≦ 4)
[2]
  Minimum Inhibitory Concentration (MIC): +++ (+++ = MIC ≦ 4)
[3]
  Minimum Inhibitory Concentration (MIC): +++ (+++ = MIC ≦ 4)
E. faecalis ATCC 29212
  Minimum Inhibitory Concentration (MIC): +++ (+++ = MIC ≦ 4)
[4]
  Minimum Inhibitory Concentration (MIC): + (+ = 12 ≦ MIC ≦ 32)

## Cn1cc(NC(=O)c2cc(NC(=O)c3ccc(F)cc3F)no2)cc1C(=O)NCCN1CCOCC1 [Compound E-3]
S. pneumoniae ATCC 49619
  Minimum Inhibitory Concentration (MIC): + (+ = 12 ≦ MIC ≦ 32)
[1]
  Minimum Inhibitory Concentration (MIC): + (+ = 12 ≦ MIC ≦ 32)
[2]
  Minimum Inhibitory Concentration (MIC): + (+ = 12 ≦ MIC ≦ 32)
[3]
  Minimum Inhibitory Concentration (MIC): >32 µg/mL
E. faecalis ATCC 29212
  Minimum Inhibitory Concentration (MIC): + (+ = 12 ≦ MIC ≦ 32)
[4]
  Minimum Inhibitory Concentration (MIC): >32 µg/mL

## CN(C)CCCCNC(=O)c1cc(NC(=O)c2cc(NC(=O)c3cc(NC(=O)c4ccc(Cl)cc4F)c[nH]3)cn2C)cn1C [Compound A-15]
S. pneumoniae ATCC 49619
  Minimum Inhibitory Concentration (MIC): +++ (+++ = MIC ≦ 4)
[1]
  Minimum Inhibitory Concentration (MIC): +++ (+++ = MIC ≦ 4)
[2]
  Minimum Inhibitory Concentration (MIC): +++ (+++ = MIC ≦ 4)
[3]
  Minimum Inhibitory Concentration (MIC): +++ (+++ = MIC ≦ 4)
E. faecalis ATCC 29212
  Minimum Inhibitory Concentration (MIC): +++ (+++ = MIC ≦ 4)
[4]
  Minimum Inhibitory Concentration (MIC): + (+ = 12 ≦ MIC ≦ 32)

## Cn1cc(NC(=O)c2cc(NC(=O)c3ccccc3F)cn2C)cc1C(=O)NCCN1CCOCC1 [Compound B-43]
S. pneumoniae ATCC 49619
  Minimum Inhibitory Concentration (MIC): + (+ = 12 ≦ MIC ≦ 32)
[1]
  Minimum Inhibitory Concentration (MIC): + (+ = 12 ≦ MIC ≦ 32)
[2]
  Minimum Inhibitory Concentration (MIC): + (+ = 12 ≦ MIC ≦ 32)
[3]
  Minimum Inhibitory Concentration (MIC): + (+ = 12 ≦ MIC ≦ 32)
E. faecalis ATCC 29212
  Minimum Inhibitory Concentration (MIC): + (+ = 12 ≦ MIC ≦ 32)
[4]
  Minimum Inhibitory Concentration (MIC): >32 µg/mL

## Cn1cc(NC(=O)c2cc(NC(=O)c3cc(NC(=O)c4ccc(F)cc4F)c[nH]3)c[nH]2)cc1C(=O)NCCN1CCOCC1 [Compound C-3]
S. pneumoniae ATCC 49619
  Minimum Inhibitory Concentration (MIC): +++ (+++ = MIC ≦ 4)
[1]
  Minimum Inhibitory Concentration (MIC): + (+ = 12 ≦ MIC ≦ 32)
[2]
  Minimum Inhibitory Concentration (MIC): + (+ = 12 ≦ MIC ≦ 32)
[3]
  Minimum Inhibitory Concentration (MIC): + (+ = 12 ≦ MIC ≦ 32)
E. faecalis ATCC 29212
  Minimum Inhibitory Concentration (MIC): ++ (++ = 4 < MIC < 12)
[4]
  Minimum Inhibitory Concentration (MIC): >32 µg/mL

## Cn1cc(NC(=O)c2cc(NC(=O)c3cc(NC(=O)c4ccc(F)cc4F)cn3C)cn2C)cc1C(=O)NCCN1CCNCC1 [Compound B-28]
S. pneumoniae ATCC 49619
  Minimum Inhibitory Concentration (MIC): +++ (+++ = MIC ≦ 4)
[1]
  Minimum Inhibitory Concentration (MIC): + (+ = 12 ≦ MIC ≦ 32)
[2]
  Minimum Inhibitory Concentration (MIC): + (+ = 12 ≦ MIC ≦ 32)
[3]
  Minimum Inhibitory Concentration (MIC): + (+ = 12 ≦ MIC ≦ 32)
E. faecalis ATCC 29212
  Minimum Inhibitory Concentration (MIC): + (+ = 12 ≦ MIC ≦ 32)
[4]
  Minimum Inhibitory Concentration (MIC): >32 µg/mL

## Cn1cc(NC(=O)c2cc(NC(=O)c3cc(NC(=O)c4ccc(F)cc4F)cn3C)c[nH]2)cc1C(=O)NCCN1CCOCC1 [Compound C-2]
S. pneumoniae ATCC 49619
  Minimum Inhibitory Concentration (MIC): +++ (+++ = MIC ≦ 4)
[1]
  Minimum Inhibitory Concentration (MIC): ++ (++ = 4 < MIC < 12)
[2]
  Minimum Inhibitory Concentration (MIC): ++ (++ = 4 < MIC < 12)
[3]
  Minimum Inhibitory Concentration (MIC): ++ (++ = 4 < MIC < 12)
E. faecalis ATCC 29212
  Minimum Inhibitory Concentration (MIC): ++ (++ = 4 < MIC < 12)
[4]
  Minimum Inhibitory Concentration (MIC): >32 µg/mL

## Cn1cc(NC(=O)c2cc(NC(=O)c3cc(NC(=O)c4ccc(F)cc4F)cn3C)cn2C)cc1C(=O)NCCNC(=N)N [Compound B-23]
S. pneumoniae ATCC 49619
  Minimum Inhibitory Concentration (MIC): +++ (+++ = MIC ≦ 4)
[1]
  Minimum Inhibitory Concentration (MIC): +++ (+++ = MIC ≦ 4)
[2]
  Minimum Inhibitory Concentration (MIC): +++ (+++ = MIC ≦ 4)
[3]
  Minimum Inhibitory Concentration (MIC): +++ (+++ = MIC ≦ 4)
E. faecalis ATCC 29212
  Minimum Inhibitory Concentration (MIC): +++ (+++ = MIC ≦ 4)
[4]
  Minimum Inhibitory Concentration (MIC): ++ (++ = 4 < MIC < 12)

## Cn1cc(NC(=O)c2cc(NC(=O)c3ccc(Cl)cc3F)c[nH]2)cc1C(=O)NCCN1CCC(O)CC1 [Compound A-23]
S. pneumoniae ATCC 49619
  Minimum Inhibitory Concentration (MIC): +++ (+++ = MIC ≦ 4)
[1]
  Minimum Inhibitory Concentration (MIC): + (+ = 12 ≦ MIC ≦ 32)
[2]
  Minimum Inhibitory Concentration (MIC): + (+ = 12 ≦ MIC ≦ 32)
[3]
  Minimum Inhibitory Concentration (MIC): + (+ = 12 ≦ MIC ≦ 32)
E. faecalis ATCC 29212
  Minimum Inhibitory Concentration (MIC): + (+ = 12 ≦ MIC ≦ 32)
[4]
  Minimum Inhibitory Concentration (MIC): >32 µg/mL

## Cn1cc(NC(=O)c2cc(NC(=O)c3cc(NC(=O)c4ccc(F)cc4F)cn3C)cn2C)cc1C(=O)NCCc1cccc[n+]1C [Compound B-17]
S. pneumoniae ATCC 49619
  Minimum Inhibitory Concentration (MIC): ++ (++ = 4 < MIC < 12)
[1]
  Minimum Inhibitory Concentration (MIC): +++ (+++ = MIC ≦ 4)
[2]
  Minimum Inhibitory Concentration (MIC): ++ (++ = 4 < MIC < 12)
[3]
  Minimum Inhibitory Concentration (MIC): ++ (++ = 4 < MIC < 12)
E. faecalis ATCC 29212
  Minimum Inhibitory Concentration (MIC): + (+ = 12 ≦ MIC ≦ 32)
[4]
  Minimum Inhibitory Concentration (MIC): >32 µg/mL

## Cn1cc(NC(=O)c2cc(NC(=O)c3cc(NC(=O)c4ccc(F)cc4)cn3C)cn2C)cc1C(=O)NCCN1CCOCC1 [Compound B-32]
S. pneumoniae ATCC 49619
  Minimum Inhibitory Concentration (MIC): ++ (++ = 4 < MIC < 12)
[1]
  Minimum Inhibitory Concentration (MIC): + (+ = 12 ≦ MIC ≦ 32)
[2]
  Minimum Inhibitory Concentration (MIC): + (+ = 12 ≦ MIC ≦ 32)
[3]
  Minimum Inhibitory Concentration (MIC): ++ (++ = 4 < MIC < 12)
E. faecalis ATCC 29212
  Minimum Inhibitory Concentration (MIC): ++ (++ = 4 < MIC < 12)
[4]
  Minimum Inhibitory Concentration (MIC): >32 µg/mL

## Cn1cc(NC(=O)c2cc(NC(=O)c3cc(NC(=O)c4ccc(OC(F)F)cc4)cn3C)cn2C)cc1C(=O)NCCN1CCCC1 [Compound B-84]
S. pneumoniae ATCC 49619
  Minimum Inhibitory Concentration (MIC): +++ (+++ = MIC ≦ 4)
[1]
  Minimum Inhibitory Concentration (MIC): +++ (+++ = MIC ≦ 4)
[2]
  Minimum Inhibitory Concentration (MIC): +++ (+++ = MIC ≦ 4)
[3]
  Minimum Inhibitory Concentration (MIC): +++ (+++ = MIC ≦ 4)
E. faecalis ATCC 29212
  Minimum Inhibitory Concentration (MIC): +++ (+++ = MIC ≦ 4)
[4]
  Minimum Inhibitory Concentration (MIC): + (+ = 12 ≦ MIC ≦ 32)

## Cn1cc(NC(=O)c2cc(NC(=O)c3cc(NC(=O)c4ccc(F)cc4F)c[nH]3)cn2CCCO)cc1C(=O)NCCN1CCOCC1 [Compound C-5]
S. pneumoniae ATCC 49619
  Minimum Inhibitory Concentration (MIC): +++ (+++ = MIC ≦ 4)
[1]
  Minimum Inhibitory Concentration (MIC): + (+ = 12 ≦ MIC ≦ 32)
[2]
  Minimum Inhibitory Concentration (MIC): + (+ = 12 ≦ MIC ≦ 32)
[3]
  Minimum Inhibitory Concentration (MIC): + (+ = 12 ≦ MIC ≦ 32)
E. faecalis ATCC 29212
  Minimum Inhibitory Concentration (MIC): + (+ = 12 ≦ MIC ≦ 32)
[4]
  Minimum Inhibitory Concentration (MIC): >32 µg/mL

## Cn1cc(NC(=O)c2cc(NC(=O)c3cc(NC(=O)c4ccc(F)cc4F)cn3C)cn2C)cc1C(=O)NCCCN1CCOCC1 [Compound B-8]
S. pneumoniae ATCC 49619
  Minimum Inhibitory Concentration (MIC): ++ (++ = 4 < MIC < 12)
[1]
  Minimum Inhibitory Concentration (MIC): ++ (++ = 4 < MIC < 12)
[2]
  Minimum Inhibitory Concentration (MIC): ++ (++ = 4 < MIC < 12)
[3]
  Minimum Inhibitory Concentration (MIC): ++ (++ = 4 < MIC < 12)
E. faecalis ATCC 29212
  Minimum Inhibitory Concentration (MIC): ++ (++ = 4 < MIC < 12)
[4]
  Minimum Inhibitory Concentration (MIC): >32 µg/mL

## Cc1cc(NC(=O)c2cc(NC(=O)c3cc(NC(=O)c4ccc(Cl)cc4NCCN4CCCCC4)cn3C)c[nH]2)sn1 [Compound C-22]
S. pneumoniae ATCC 49619
  Minimum Inhibitory Concentration (MIC): +++ (+++ = MIC ≦ 4)
[1]
  Minimum Inhibitory Concentration (MIC): +++ (+++ = MIC ≦ 4)
[2]
  Minimum Inhibitory Concentration (MIC): +++ (+++ = MIC ≦ 4)
[3]
  Minimum Inhibitory Concentration (MIC): +++ (+++ = MIC ≦ 4)
E. faecalis ATCC 29212
  Minimum Inhibitory Concentration (MIC): +++ (+++ = MIC ≦ 4)
[4]
  Minimum Inhibitory Concentration (MIC): + (+ = 12 ≦ MIC ≦ 32)

## Cn1cc(NC(=O)c2cc(NC(=O)c3cc(NC(=O)c4ccc(F)cc4F)cn3C)cn2C)cc1C(=O)NCCN [Compound B-21]
S. pneumoniae ATCC 49619
  Minimum Inhibitory Concentration (MIC): ++ (++ = 4 < MIC < 12)
[1]
  Minimum Inhibitory Concentration (MIC): + (+ = 12 ≦ MIC ≦ 32)
[2]
  Minimum Inhibitory Concentration (MIC): ++ (++ = 4 < MIC < 12)
[3]
  Minimum Inhibitory Concentration (MIC): + (+ = 12 ≦ MIC ≦ 32)
E. faecalis ATCC 29212
  Minimum Inhibitory Concentration (MIC): ++ (++ = 4 < MIC < 12)
[4]
  Minimum Inhibitory Concentration (MIC): + (+ = 12 ≦ MIC ≦ 32)
